Measured values reported in patent publication US20120165403A1, “METHODS OF INHIBITING THE ACTIVITY OF HSP90 AND/OR ARYL HYDROCARBON RECEPTOR” (UNIVERSITY OF ROCHESTER, priority 2004, published 2012).

Tests used:
mouse AhR = assay: Competitive binding by velocity sedimentation on sucrose density gradients; settings: Hepa cytosol, 2 h, room temperature
Protocol: Mouse hepatoma cells, Hepa1c1c7 (Hepa), and BP^rCl cells were maintained in modified Eagle's medium (Sigma) supplemented with 10% heat-inactivated fetal bovine serum, sodium pyruvate, L-glutamine, sodium bicarbonate, and Gentamicin (MEM+), at 37° C. in a humid atmosphere with 5% CO2. BP^rCl cells are a derivative of Hepa1c1c7 cells that lack ARNT protein expression and function (Probst et al., Mol. Pharmacol. 44:511-518 (1993), which is hereby incorporated by reference in its entirety). Upon reaching 90% confluency, cells were harvested and homogenized in HEDG buffer (25 mM HEPES, 1.5 mM Na2EDTA, 1 mM dithiothreitol, 10% (v/v) glycerol, pH 7.6) containing protease inhibitors (Roche Applied Science complete mini cocktail tablet, Indianapolis, Ind.). Both Hepa and BP^rC1 cytosols were prepared by centrifugation of the homogenate at 100,000 g for 45 min.
(§1) Competitive binding of EGCG was analyzed by velocity sedimentation on sucrose gradients in a vertical tube rotor (Tsui et al., Can. J. Physiol. Pharmacol 59:927-931 (1981); Jensen et al., Toxicol. Sci. 64:41-56 (2001), which are hereby incorporated by reference in their entirety). Hepa cytosol (100 μl of 2.5 mg/ml) or BP^rCl cytosol was incubated for two hours at room temperature with either 3 nM ^3H-TCDD, 0.5 nM ^3H-TCDD, or 5 nM ^3H-BNF, in the presence of DMSO, 150-fold excess TCDF, 1 μM 3M4NF, or EGCG. Cytosols were washed with charcoal-dextran (1 mg charcoal/mg protein) in HEDG, and applied to a 10-30% (w/v) sucrose gradient in Beckman Quick-Seal centrifuge tubes (Beckman, Palo Alto, Calif.). [Methyl-^14C]-BSA was used as an internal sedimentation marker. The gradients were centrifuged for 2 h at 372,000×g in a Beckman VTI-80 rotor. Fractions were collected from the top at a rate of 1 ml/min, 0.2 ml/fraction. For competitive binding assays, fractions were assayed for radioactivity with ScintiVerse (Fisher Scientific, Fair Lawn, N.J.). […] For AhR and hsp90 density analysis, protein contained within an aliquot (200 of each fraction was separated by SDS-PAGE (7.5% acrylamide resolving gel) and transferred to PVDF membranes. Membranes were probed with antibodies recognizing AhR (Biomol) or hsp90 (Stressgen, Victoria, BC Canada). A crude estimate of the sedimentation coefficient for the EGCG shifted AhR complex was calculated by the method of Martin and Ames (Martin et al., J. Biol. Chem. 236:1372-1379 (1961), which is hereby incorporated by reference in its entirety) relative to the ^14C-BSA (4.4S) standard.

hsp90 = assay: Sucrose density gradient sedimentation of hsp90 in Hepa cytosol; type: biochemical, mouse; settings: 2 h, 200 μM EGCG or 10 nM TCDD
Protocol: as §1, with “Cytosols were washed with charcoal-dextran (1 mg charcoal/mg protein) in HEDG, and applied to a 10-30% (w/v) sucrose gradient in Beckman Quick-Seal centrifuge tubes (Beckman, Palo Alto, Calif.). [Methyl-^14C]-BSA was used as an internal sedimentation marker. The gradients were centrifuged for 2 h at 372,000×g in a Beckman VTI-80 rotor. Fractions were collected from the top at a rate of 1 ml/min, 0.2 ml/fraction.” left out

AhR [1] = assay: Immunocytochemistry of AhR subcellular localization in Hepa cells; type: cell-based, mouse; settings: 1 h, EGCG 200 μM or TCDD 150 pM
Protocol: Hepa cells were plated onto four-well chamber slides (Becton Dickinson, Bedford, Mass.) at a density of 2.0×10^4 and incubated overnight. Cells were treated with either vehicle (DMSO), TCDD (150 pM), EGCG alone (200 μM), or EGCG in the presence of TCDD (150 pM) for 1 h. Cells were fixed with 3.7% formalin at room temperature for 10 minutes, followed by a four minute incubation in anhydrous methanol at 4° C. All antibodies were filtered through a 0.45 micron filter before staining Cells were blocked for one hour in phosphate buffered saline containing 4% BSA, incubated with anti-AhR at a 1:2000 dilution for two hours at room temperature, followed by a one hour incubation with 1:1000 anti-rabbit Alexa-Fluor conjugated secondary antibody (Molecular Probes, Eugene Oreg.). Nuclei were stained with DAPI (0.5 μg/ml) (Molecular Probes) for three minutes at room temperature. Slides were mounted with 50% glycerol and coverslipped. AhR staining and nuclear staining were visualized using a Nikon Eclipse TS110 fluorescent microscope (40× magnification). Fluorescent images were captured using SPOT advanced software.

AhR [2] = assay: AhR protein levels by western blotting in Hepa cells; type: cell-based, mouse; settings: over 12 hours, EGCG 200 μM or TCDD 150 pM
Protocol: Hepa cells were plated onto 6-well plates at a density of 5×10^5 cells/well and incubated overnight at 37° C. […] Cells were lysed (0.2% Triton, 5 mM EDTA in PBS) and total protein quantified using the Coomassie Plus Protein Assay Reagent (Pierce, Rockford, Ill.). Protein (30 μg) was separated by SDS-PAGE (7.5% acrylamide resolving gel) and transferred to PVDF membrane (Millipore, Bedford, Mass.). Membranes were probed with antibodies recognizing CYP1A1 (Xenotech, Lenexa, Kans.), AhR (Biomol, Plymouth Meeting, Pa.) and actin (Sigma). The secondary IgG antibodies were coupled to horseradish peroxidase (Jackson Immuno Research, West Grove, Pa.). Both primary and secondary antibodies were used at a dilution of 1:5000 in TBST (50 mM Tris, 300 mM NaCl, 0.5% Tween 20, pH 7.5) containing 5% milk. Proteins were visualized by chemiluminescence (KPL, Gaithersburg, Md.).

Q: For `COc1cc(-c2cc(=O)c3ccccc3o2)ccc1[N+](=O)[O-]` [3M4NF, 3′-methoxy-4′ nitroflavone, reference compound], which “competition with 3H-TCDD for specific binding to the AhR (9S peak)” value (mouse AhR; 3 nM 3H-TCDD) is on record?
A: The value was “inhibited the formation of this ^3H-TCDD peak”.

Q: How did the “competition with 3H-BNF for binding to the AhR” value (mouse AhR; 5 nM 3H-BNF) turn out when `O=c1cc(-c2cccc([N+](=O)[O-])c2)oc2ccccc12` [3′-nitroflavone, reference compound] was run?
A: The value was “very efficiently competed with BNF binding”.

Q: What does the source list for `Clc1cc2c(cc1Cl)Oc1cc(Cl)c(Cl)cc1O2` [TCDD, 2,3,7,8-tetrachlorodibenzo-p-dioxin, reference compound]?
A: effect on the sedimentation pattern of hsp90 (hsp90): did not appear to influence this sedimentation pattern; subcellular localization of the AhR, treatment alone (AhR [1]): redistribution of the AhR from the cytosol to the nucleus; AhR protein levels, treatment alone (AhR [2]): decline rapidly
